Assay results: patent US6495133B1, “Gliocladium roseum strains useful for the control of fungal pathogens in plants” (priority 1998, dated 2002)

System: Pythium aphanidermatum
Assay: Comparison and compatibility of ACM941 with metalaxyl fungicide, pythium root rot of field pea, field experiments
Format: in vivo
Conditions: for Emergence / Yield: Saturn field pea
[1] = average of the two testing years

## COCC(=O)N(c1c(C)cccc1C)C(C)C(=O)OC (stereo not drawn) [Metalaxyl, metalaxyl]
1997
  Emergence: 44.3 ab %
  Yield: 990 bc kg/ha
1998
  Emergence: 78.2 a %
  Yield: 5757 a kg/ha
[1]
  increased emergence by: 17.3%
  increased yield by: 19.5%
